Results: ChEMBL document CHEMBL5046310, “Design, Synthesis and Biological Evaluation of Prodrugs of 666-15 as Inhibitors of CREB-Mediated Gene Transcription” (ACS Med Chem Lett, 2022)

Key:
[1] = Apparent permeability of the compound across apical to basolateral side in human Caco-2 cells; type: ADME, cell-based
[2] = Tmax in C57BL/6 mouse at 20 mg/kg, po measured up to 24 hrs by LC-MS/MS analysis; type: ADME, organism-based; details: in vivo
[3] = Tmax in C57BL/6 mouse at 10 mg/kg, ip measured up to 24 hrs by LC-MS/MS analysis; type: ADME, organism-based; details: in vivo
[4] = Stability of the compound in DMEM media with 10% fetal bovine serum assessed as hydrolysis of prodrug at 25 uM measured for 5 mins by RP-HPLC analysis; type: ADME, cell-free; details: cattle

| Compound | Papp A→B [1] [×10⁻⁶ cm/s] | Tmax [2] [h] | Tmax [3] [h] | t1/2 [4] [h] |
| --- | --- | --- | --- | --- |
| Cl.NCCCOc1cc2ccccc2cc1C(=O)NCCOc1cc2ccccc2cc1C(=O)Nc1ccc(Cl)cc1O | < 0.11 | 2 | 0.25 |  |
| NCCCOc1cc2ccccc2cc1C(=O)NCCOc1cc2ccccc2cc1C(=O)Nc1ccc(Cl)cc1OCOP(=O)(O)O.O=C(O)C(F)(F)F |  |  |  | 2.61 |
| NCCCOc1cc2ccccc2cc1C(=O)NCCOc1cc2ccccc2cc1C(=O)Nc1ccc(Cl)cc1OP(=O)(O)O.O=C(O)C(F)(F)F |  | 2 | 1 |  |
